Experimental data: US8110573B2, “Pyrazole compounds that modulate the activity of CDK, GSK and aurora kinases” (Astex Therapeutics Limited, priority 2004, dated 2012)

Molecular target: T1, CDK1/CyclinB (Homo sapiens, UniProt P06493)
T1 construct: purchased Upstate Discovery
Test: Activated CDK1/CyclinB kinase inhibitory activity assay
Format: biochemical
Experimental: The reaction is allowed to proceed for 2 to 4 hours before being stopped with an excess of ortho-phosphoric acid (5 μl at 2%). γ^33P-ATP which remains unincorporated into the histone H1 is separated from phosphorylated histone H1 on a Millipore MAPH filter plate. The wells of the MAPH plate are wetted with 0.5% orthophosphoric acid, and then the results of the reaction are filtered with a Millipore vacuum filtration unit through the wells. Following filtration, the residue is washed twice with 200 μl of 0.5% orthophosphoric acid. Once the filters have dried, 20 μl of Microscint 20 scintillant is added, and then counted on a Packard Topcount for 30 seconds.
CDK1/CyclinB assay is identical to the CDK2/CyclinA above except that CDK1/CyclinB (Upstate Discovery) is used and the enzyme is diluted to 6.25 nM.

T1 sequence (P06493 whole entry): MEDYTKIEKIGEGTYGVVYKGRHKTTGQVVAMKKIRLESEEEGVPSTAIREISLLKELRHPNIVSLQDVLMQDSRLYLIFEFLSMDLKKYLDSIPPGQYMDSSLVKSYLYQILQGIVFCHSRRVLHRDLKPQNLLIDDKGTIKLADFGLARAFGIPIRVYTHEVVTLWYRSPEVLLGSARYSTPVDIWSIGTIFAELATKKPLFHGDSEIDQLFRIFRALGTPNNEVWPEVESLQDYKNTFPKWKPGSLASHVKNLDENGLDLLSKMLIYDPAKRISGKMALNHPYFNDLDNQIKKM
T1 sequence (P14635 whole entry partner): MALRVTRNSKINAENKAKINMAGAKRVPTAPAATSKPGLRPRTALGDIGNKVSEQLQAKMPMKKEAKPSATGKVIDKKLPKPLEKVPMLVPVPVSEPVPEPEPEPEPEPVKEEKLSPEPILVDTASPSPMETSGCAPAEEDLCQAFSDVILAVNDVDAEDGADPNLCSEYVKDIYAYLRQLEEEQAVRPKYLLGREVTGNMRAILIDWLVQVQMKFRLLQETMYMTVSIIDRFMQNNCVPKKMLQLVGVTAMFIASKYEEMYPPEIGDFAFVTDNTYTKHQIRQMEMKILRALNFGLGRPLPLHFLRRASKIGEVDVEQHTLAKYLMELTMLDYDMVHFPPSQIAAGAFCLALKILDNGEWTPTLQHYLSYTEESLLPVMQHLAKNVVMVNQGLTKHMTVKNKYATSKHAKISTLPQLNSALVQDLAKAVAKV

IC50 [µM] | SMILES
< 10 | COc1cc2nc(-c3n[nH]cc3NC(=O)C3CN(C(C)C)CCO3)[nH]c2cc1OC (racemic) [Example 16, N-[3-(5,6-dimethoxy-1H-benzimidazol-2-yl)-1H-pyrazol-4-yl]-rac-4 isopropyl-2-morpholine carboxamide]
< 10 | COc1cc2nc(-c3n[nH]cc3NC(=O)C3CCCN(C)C3)[nH]c2cc1OC (racemic) [Example 17, N-[3-(5,6-dimethoxy-H-benzimidazol-2-yl)-1H-pyrazol-4-yl]-rac-1-methyl-piperidine 3-carboxamide]
< 50 | Cc1nc2sccn2c1C(=O)Nc1c[nH]nc1-c1nc2cc(CN3CCOCC3)ccc2[nH]1 [Example 2, 6-methyl-imadazol[2,1-b]thiazole-5-carboxylic acid[3-(5-morpholin-4-ylmethyl-1H-benzoimidazol-2-yl)-1H-pyrazol-4-yl]-amide]
< 10 | N#CCC(=O)Nc1c[nH]nc1-c1nc2cc(CN3CCOCC3)ccc2[nH]1 [Example 3, 2-cyano-N-[3-(5-morpholin-4-ylmethyl-1H-benzoimidaxol-2-yl)-1H-pyrazol-4-yl]-acetamide]
< 1 | N#CC(C(=O)Nc1c[nH]nc1-c1nc2cc(CN3CCOCC3)ccc2[nH]1)C1CC1 (stereo not drawn) [Example 4, 2-Cyano-2-cyclopropyl-N-[3-(5-morpholin-4-ylmethyl-1H-benzoimidazol-2-yl)-1H-pyrazol-4-yl]-acetamide]
< 10 | CC(C)(CO)C(=O)Nc1c[nH]nc1-c1nc2cc(CN3CCOCC3)ccc2[nH]1 [Example 8]
< 10 | O=C(Nc1c[nH]nc1-c1nc2cc(CN3CCOCC3)ccc2[nH]1)C1CCOC1 (stereo not drawn) [Example 9]
< 1 | O=C(Nc1c[nH]nc1-c1nc2cc(CN3CCOCC3)ccc2[nH]1)[C@@H]1CCCO1 [Example 13]
< 50 | O=C(NCc1c(F)cccc1F)Nc1c[nH]nc1-c1nc2cc(CN3CCOCC3)ccc2[nH]1 [Example 23]
< 50 | O=C(NCC1CCOCC1)Nc1c[nH]nc1-c1nc2cc(CN3CCOCC3)ccc2[nH]1 [Example 26]
< 50 | O=C(Nc1c[nH]nc1-c1nc2cc(CN3CCOCC3)ccc2[nH]1)NC1CCOCC1 [Example 27]
< 10 | O=C(Nc1c[nH]nc1-c1nc2cc(CN3CCOCC3)ccc2[nH]1)N1Cc2ccccc2C1 [Example 28]
< 10 | O=C(Nc1c[nH]nc1-c1nc2cc(CN3CCOCC3)ccc2[nH]1)N1CCc2ccccc21 [Example 29]
< 50 | CS(=O)(=O)CCNC(=O)Nc1c[nH]nc1-c1nc2cc(CN3CCOCC3)ccc2[nH]1 [Example 33]
< 10 | O=C(NCC1CC1)Nc1c[nH]nc1-c1nc2cc(CN3CCOCC3)ccc2[nH]1 [Example 34]
< 50 | CN(C(=O)Nc1c[nH]nc1-c1nc2cc(CN3CCOCC3)ccc2[nH]1)c1ccc(F)cc1 [Example 37, 1-(4-fluorophenyl)-1-methyl-3-[3-(5-morpholin-4-ylmethyl-1H-benzimadazol-2-yl)-1H-pyrazol-4-yl]-urea]
< 10 | Cn1cccc(NC(=O)Nc2c[nH]nc2-c2nc3cc(CN4CCOCC4)ccc3[nH]2)c1=O [Example 39]
< 10 | CN(C(=O)Nc1c[nH]nc1-c1nc2cc(CN3CCOCC3)ccc2[nH]1)c1cccc(F)c1 [Example 41]
< 1 | CN(C(=O)Nc1c[nH]nc1-c1nc2cc(CN3CCOCC3)ccc2[nH]1)c1ccc(F)cc1F [Example 42]
< 50 | CN(C(=O)Nc1c[nH]nc1-c1nc2cc(CN3CCOCC3)ccc2[nH]1)c1ccccc1F [Example 43]
< 10 | O=C(Nc1ccccc1F)Nc1c[nH]nc1-c1nc2cc(CN3CCOCC3)ccc2[nH]1 [Example 49]
< 10 | O=C(Nc1cccc(F)c1)Nc1c[nH]nc1-c1nc2cc(CN3CCOCC3)ccc2[nH]1 [Example 50]
< 10 | O=C(NCc1ccco1)Nc1c[nH]nc1-c1nc2cc(CN3CCOCC3)ccc2[nH]1 [Example 52]
< 10 | COc1ccc(Cl)cc1NC(=O)Nc1c[nH]nc1-c1nc2cc(CN3CCOCC3)ccc2[nH]1 [Example 56]
